Where two headings read alike, the source gives them in different places. Ends that are not written are not given here.

The source of these data is US7144982B2, “Polypeptides with therapeutic activity and methods of use” (University of Minnesota, priority 2000, dated 2006).

For one data set, the system named is Human red blood cells. The data set is classed as cell-based. Conditions: for hemolysis: red cells of human, 1 h. As for the experimental part: Human red blood cells were washed three times using phosphate buffered saline (PBS: 35 mM phosphate buffer, 0.15 M NaCl, pH 7.0) prior to performing the assay. One hundred μL of human red blood cells suspended in 0.4% (v/v) PBS was placed in eppendorf tubes, and 100 μL of serially diluted peptides in PBS was added (peptide concentration ranged from 1 μM to 100 μM). Tubes were incubated for 1 hr at 37° C. and centrifuged at 1000 g for 5 min. One hundred μL aliquots of the supernatant was then transferred to eppendorf tubes, and hemolysis was measured by absorbance at 414 nm. Zero percentage hemolysis and 100% hemolysis were determined in PBS and in 1% Triton-X 100, respectively. The hemolysis percentage was calculated using the following formula: % hemolysis=[(A414 in the peptide solution−A414 in PBS)/(A414 in 1% Triton-X 100−A414 in PBS)]×100.

A further data set has as its system E. coli J5. In words: Bactericidal assay, rough strain E. coli J5. The format is cell-based. Conditions: for LD50 bactericidal activity, Gram-neg. rough J5: Table 4, SC-4 variants. The source says: (§1) Pseudomonas aeruginosa type 1 is a clinical, smooth strain isolate serotyped by using the scheme of Homma, Japan. J. Exp. Med. 46, 329–336 (1976) and maintained in the lab by monthly transfer on blood agar plates. E. coli J96, IA2, and H5 are smooth strain, uropathogenic clinical isolates kindly maintained and provided by J. R. Johnson and described in Johnson et al., J. Infect. Disease 173, 920–926 (1996) for J96 and IA2 and in Johnson et al., J. Infect. Disease 173, 746–749 (1996) for H5. J5 is an E. coli rough strain initially referenced by G. R. Siber and discussed in Warren et al., Infect. Immunity 55, 1668–1673 (1987) and is analogous to the smooth strain E. coli 0111:B4 used in the BioWhittaker LAL endotoxin detection and quantitation kit described below. Gram-positive MN8 and MNHO are two patient isolates of Staphylococcus aureus, which were kindly provided by P. M. Schlievert and described in Bohach et al., Rev. Infect. Diseases 11, 75–82 (1989) for MNHO and in Schlievert et al., J. Infect. Diseases 147, 236–242 (1983) for MN8. All cultures are maintained on nutrient agar plates.
(§2) Pyrogen-free solutions were used throughout the assay. Log phase bacteria were obtained by transferring an overnight culture or scraping crystals off −85° C. glycerol stocks of overnight cultures. Bacteria were washed and resuspended in 0.9% sodium chloride with adjustment to an optical density at 650 nm which yields 3×10^8 CFU/ml. Bacteria were then diluted 1:10 in 0.08 M citrate phosphate buffer, pH 7.0 (prepared by mixing 0.08 M citric acid with 0.08 M dibasic sodium phosphate). Bacteria (0.15 ml) were incubated with peptide in a final volume of 1.0 ml of buffer. The assay was done in 17×100 polypropylene tubes in a reciprocal water bath shaker at 37° C. for 30 minutes. Following this 30 minute (min) incubation, 10-fold dilutions were made in 0.9% sodium chloride. Dilutions were done to 10^−4 and 20 μl of each dilution was streaked across an agar plate. Gram-positive organisms were plated on nutrient agar plates containing 2% agar and Gram-negative organisms were plated on MacConkey agar (2%). Plates were incubated overnight at 37° C. and counted the next morning. The dilution containing 10–100 bacteria was counted and the number multiplied by 50 to adjust all counts to the number bacteria killed per milliliter. Peptide concentrations were converted to logarithm base ten and graphed. Bactericidal activity was determined by dose response where LD50 values were determined by best fits of a sigmoidal curve to the dose response data.

For data set [1], the system named is Pseudomonas aeruginosa type 1. As to the kind of experiment: Bactericidal assay, P. aeruginosa (P.a.). The format is cell-based. Conditions: SD about ±30%; for LD50 bactericidal activity, Gram-neg. smooth P.a.: Table 4, SC-4 variants.
Text: as §1, §2

For data set [2], the system named is Staphylococcus aureus MNHO. In words: Bactericidal assay, Gram-positive S. aureus MNHO. The data set is classed as cell-based. Conditions: SD about ±30%.
Text: as §1, §2

The subject of the next data set is E. coli 055:B5 LPS. In words: Limulus amoebocyte lysate assay for LPS neutralization. The format is biochemical. To be noted: for drop in LPS neutralizing activity relative to SC-4: SC-3: relative to either SC-4 or SC-5. The source says:
The ability of synthetic peptides to neutralize endotoxin was detected using the chromogenic QCL-1000 kit from BioWhittaker, Inc. (Walkersville, Md.) as described in their protocol. This method is quantitative for Gram-negative bacterial endotoxin (lipopolysaccharide, LPS). In the Limulus amebocyte lysate (LAL) assay, peptides that are active inhibit the LPS-mediated activation of a proenzyme (Young et al., J. Clin. Invest. 51, 1790–1797 (1972)) whose active form would release p-nitroaniline (pNA) from a colorless synthetic substrate (Ac-Ile-Glu-Ala-Arg-pNA), producing a yellow color (pNA) whose absorption is monitored spectrophotometrically at 405–410 nm. The initial rate of enzyme activation is proportional to the concentration of endotoxin present. The concentration of peptide required to bind to LPS and therefore to inhibit the Limulus amoebocyte lysate driven by 0.04 unit (or 0.01 ng) of E. coli 055:B5 LPS (from SIGMA) was determined by dose response.

In a further data set the test system is bacteria. Conditions: Alvarez-Bravo et al. 1995; cited from earlier work.
For a further data set, the system named is E. coli J96. The format is cell-based.
Text: as §1
as §2, with “The assay was done in 17×100 polypropylene tubes in a reciprocal water bath shaker at 37° C. for 30 minutes. Following this 30 minute (min) incubation, 10-fold dilutions were made in 0.9% sodium chloride. Dilutions were done to 10^−4 and 20 μl of each dilution was streaked across an agar plate. Gram-positive organisms were plated on nutrient agar plates containing 2% agar and Gram-negative organisms were plated on MacConkey agar (2%).” left out, “Peptide concentrations were converted to logarithm base ten and graphed.” left out

A further data set deals with E. coli H5. In words: Bactericidal assay, smooth strain E. coli H5. The format is cell-based. To be noted: Table 1, SD about ±30%.
Text: as §1, with “Diseases 11, 75–82 (1989) for MNHO and in Schlievert et al., J. Infect. Diseases 147, 236–242 (1983) for MN8. All cultures are maintained on nutrient agar plates.” left out
(§3) Pyrogen-free solutions were used throughout the assay. […] Plates were incubated overnight at 37° C. and counted the next morning. The dilution containing 10–100 bacteria was counted and the number multiplied by 50 to adjust all counts to the number bacteria killed per milliliter. […] Bactericidal activity was determined by dose response where LD50 values were determined by best fits of a sigmoidal curve to the dose response data.

In another data set the test system is E. coli IA2. In words: Bactericidal assay, smooth strain E. coli IA2. The data set is classed as cell-based. To be noted: Table 1, SD about ±30%.
Text: as §1, with “Diseases 11, 75–82 (1989) for MNHO and in Schlievert et al., J. Infect. Diseases 147, 236–242 (1983) for MN8. All cultures are maintained on nutrient agar plates.” left out
as §3

For data set [3], the system named is Staphylococcus aureus MN8. As to the kind of experiment: Bactericidal assay, Gram-positive S. aureus MN8. The format is cell-based. Conditions: Table 1, SD about ±30%.
Text: as §1, with “Diseases 11, 75–82 (1989) for MNHO and in Schlievert et al., J. Infect. Diseases 147, 236–242 (1983) for MN8. All cultures are maintained on nutrient agar plates.” left out
as §3

[4] abbreviates: read-out: IC50 LPS neutralization.
[5] abbreviates: Table 4, SC-4 variants, SD about ±30%, read-out: LPS neutralization IC50.

As for KLSVQMKLFKRH-NH2 [SC-2, KLSVQMKLFKRH], the hemolysis in the data set on Human red blood cells (1e-4 M) is on record as approximately 15%.
The term IC50 denotes the concentration needed to halve the response being measured. Consider “QMKLFKRHLKWK [SC-401, Q M K L F K R H L K W K-NH2]”, for which the “LD50 bactericidal activity, Gram-neg. rough J5” value with E. coli J5 (SD about ±30%) is recorded as 0.004 10^−6 M. Further, the “LD50 bactericidal activity, Gram-neg. smooth P.a.” value in [1] is listed as 0.06 10^−6 M. Besides, the “LD50 bactericidal activity, Gram-positive MNHO” value in data set [2] (Table 4, SC-4 variants) is recorded as “XXX (XXX means not active at concentrations below 1 × 10^−5 M.)”. For the same substance, in the data set with E. coli 055:B5 LPS, the “drop in LPS neutralizing activity relative to SC-3” value turned out to be 5 fold and the “drop in LPS neutralizing activity relative to SC-4” value was 60 fold. Also, the IC50 in the data set with E. coli 055:B5 LPS (setting [4]) stood at 126 µM.
For the substance “KLKLLLLLKLK-NH2 [antibacterial peptide of the literature forming channels in bacterial membranes]”, the effective antibacterial concentration with bacteria is 100 µM.
On to “BG-22: peptide 28 mer having the amino acid sequence from the β-sheet domain of bactericidal/permeability increasing (B/PI) protein (residues 82–108) (NANIKISGKWKAQKRFLKMSGNFDLSI; UniProt P17213 113-139, looked up, fragment) [reference compound]”, for which the “LD50 bactericidal activity, Gram neg. rough J5” value in the data set on E. coli J5 (Table 1, E. coli J5, SD about ±30%) is recorded as 0.09 10^−6 M. The “LD50 bactericidal activity, Gram neg. smooth P.a.” value in data set [1] (Table 1, P. aeruginosa) is 0.05 10^−6 M. The “LD50 bactericidal activity, Gram neg. smooth J96” value in the data set on E. coli J96 (Table 1, E. coli J96, SD about ±30%) is 0.52 10^−6 M. Also, in the data set on E. coli H5, the “LD50 bactericidal activity, Gram neg. smooth H5” value is given as 0.71 10^−6 M. Besides, in the data set with E. coli IA2, the “LD50 bactericidal activity, Gram neg. smooth IA2” value is recorded as 0.32 10^−6 M. Moreover, the “LD50 bactericidal activity, Gram-positive MN8” value in data set [3] is on record as 0.5 10^−6 M. Besides, the “LD50 bactericidal activity, Gram-positive MNHO” value in data set [2] (Table 1, S. aureus MNHO) is reported as 0.63 10^−6 M. Moreover, the IC50 with E. coli 055:B5 LPS (Table 1, SD about ±30%, read-out: LPS effect, IC50 for neutralization of LPS) turned out to be 5 µM.
As to “MKLFKRHLKWKI [SC-402, M K L F K R H L K W K I-NH2]”, the “LD50 bactericidal activity, Gram-neg. rough J5” value in the data set on E. coli J5 (SD about ±30%) is 0.005 10^−6 M. The “LD50 bactericidal activity, Gram-neg. smooth P.a.” value in data set [1] was 0.07 10^−6 M. The “LD50 bactericidal activity, Gram-positive MNHO” value in data set [2] (Table 4, SC-4 variants) is 6 10^−6 M. For the same substance, the “drop in LPS neutralizing activity relative to SC-4” value with E. coli 055:B5 LPS came to 12 fold. In addition, the IC50 with E. coli 055:B5 LPS (setting [5]) and in the data set with E. coli 055:B5 LPS (setting [4]) was 25 µM in each case.
Take KLFKRHLKWKII-NH2 [SC-4, KLFKRHLKWKII]: the LD50 in the data set with E. coli J5 (against J5 (Gram-negative bacteria)) is 3 nM; in the data set on E. coli J96 (J96), 250 nM. In the data set with Human red blood cells, the “concentration below which not hemolytic” value is given as ≥ 10^−4 M. For the same substance, the hemolysis with Human red blood cells (1e-4 M) is approximately 10%.
VQMKLFKRHLKW-NH2 [SC-3, VQMKLFKRHLKW] displayed a hemolysis in the data set with Human red blood cells (1e-4 M) of approximately 10%.
With K L F K R H L K W X I I-NH2 [SC-407], the “LD50 bactericidal activity, Gram-neg. rough J5” value with E. coli J5 (SD about ±30%) is 0.007 10^−6 M. In addition, the “LD50 bactericidal activity, Gram-neg. smooth P.a.” value in data set [1] was 0.05 10^−6 M. In addition, in [2] (Table 4, SC-4 variants), the “LD50 bactericidal activity, Gram-positive MNHO” value is 1 10^−6 M. The “LPS neutralization in words” value in the data set on E. coli 055:B5 LPS is listed as “essentially no affect”. Further, the IC50 in the data set on E. coli 055:B5 LPS (setting [5]) amounted to 3 µM.
On to K L F K R H L X W K I I-NH2 [SC-406], for which the “LD50 bactericidal activity, Gram-neg. rough J5” value in the data set with E. coli J5 (SD about ±30%) is given as 0.005 10^−6 M. In addition, the “LD50 bactericidal activity, Gram-neg. smooth P.a.” value in [1] is 0.05 10^−6 M. The “LD50 bactericidal activity, Gram-positive MNHO” value in [2] (Table 4, SC-4 variants) is listed as 2 10^−6 M. The “LPS neutralization in words” value with E. coli 055:B5 LPS is given as “essentially no affect”. In the data set on E. coli 055:B5 LPS (setting [5]), the IC50 stood at 3 µM.
In the case of ANIKLSVQMKLF-NH2 [SC-1, ANIKLSVQMKLF], the hemolysis in the data set on Human red blood cells (1e-6 M) is 15-30%; in the data set on Human red blood cells (1e-4 M), “around 70%”.
